Measured values: patent US9006221B2, “Method of modulating ship activity” (H. Lee Moffitt Cancer Center and Reserach Institute, Inc., priority 2008, dated 2015)

What was measured:
[1] = system: FoxP3+CD4+CD25+ Treg cells; experiment: FACS quantitation of FoxP3+CD4+CD25+ Treg cells in spleen and lymph node of treated mice; type: in vivo, mouse; details: daily injection at 125 μM for 7 days
Procedure: FACS quantitation of Mac1^+Gr1^+ Myeloid-Derived Suppressor Cells (Mac1^+Gr1^+ MySC) (A,B) and FoxP3^+CD4^+CD25^+ Treg cells (C,D) in spleen and lymph node of C57BL6 mice treated with NSC13480, vehicle or non-manipulated mice (Normal). ***p<0.001; *p<0.05.
In addition, both donor and host Treg cells can also limit or abrogate GvHD. […] (Paraiso, K. H., et al. 2007. J Immunol 178:2893). […] Adult mice were treated for 7 days with a daily injection of NSC13480 at 125 μM. The frequency of MySC and Treg cells was tested in the spleens of mice treated with NSC13480, the vehicle used for delivery of NSC 13480 and normal, untreated mice.
Antibody staining and flow cytometry (Examples 1-6): Anti-CD16/32 was co-incubated with the samples to block Fc receptor binding. Antibodies used for staining included: NK1.1 (PK136); CD3e (145-2C11); Ly49G2 (4D11); Gr-1 (RB6-8C5); Mac-1(M1/70); CD11c (HL3); CD4 (GK1.5); CD25 (PC61) and were obtained from BD Pharmingen (San Jose, Calif.). FoxP3 (FJK-16s) was purchased from eBioScience (San Diego, Calif.). All samples were acquired on a FACSCalibur and analyzed using FlowJo8.7.1. For viable staining, dead cells were excluded from the analysis following cytometer acquisition of data by exclusion of the 7AAD dye. […]

[2] = system: human multiple myeloma cell lines U266, RPMI8226 and OPM2; experiment: MTT dye assay of multiple myeloma cell lines; type: cell-based; details: increasing concentrations
Excerpt: (A) SHIP1 expression in human multiple myeloma (MM) cell lines as presented in the western blot analysis. SHIP is expressed in the human multiple myeloma cell lines U266, RPMI8226 and OPM2. The expression in the MM cell lines is shown relative to that observed in MG63 and HS-5 cell lines. MG63 is an osteosarcoma cell line, and HS-5 is a human bone marrow stroma cell line. […] Actin is provided as a control. (B) Results of MTT dye assays of MM cell lines. […] RUO is “relative units optical”. (C) Apoptosis in OPM and RPMI cell lines at increasing concentrations of 3α-aminocholestane.

human PBMC = experiment: Human one-way MLR with pre-treated PBMC stimulators; type: cell-based; details: stimulator PBMC pre-treated 24 hr with 9.4 μM
Excerpt: FACS quantitation of Mac1^+Gr1^+ MIR cells in spleen (A) and lymph node (B) of C57BL/6 mice treated with the SHIP1 inhibitor (Compound), vehicle (Vehicle) or unmanipulated controls (Normal) as indicated. (C) Mixed-Leukocyte-Reactions (MLR) where splenocytes from SHIP1 inhibitor-treated C57BL6 (H2b) mice were used as stimulators for BALB/C (H2d) responders. In parallel splenocytes from either unmanipulated (Normal) or Vehicle treated C57BL6 mice were used as positive controls for the MLR. […] (D) Human PBMC were pre-treated for 24 hr with 3α-aminocholestane (Compound) or vehicle, irradiated and then used as stimulators for untreated PBMC from a different donor in a one-way MLR. […] Absolute peripheral blood granulocyte numbers were determined by an automated blood cell analyzer. […]
Mixed leukocyte reactions (MLR): Following RBC lysis, irradiated (2000 Rads) BL6 splenocytes (stimulators) at 8×10^5 cells/well were combined with BALB/c splenocytes (responders) at 4×10^5 cells/well in a one-way MLR assay. […] Incorporated [3H]thymidine was quantitated using a Packard TopCount NXT. Specific [3H]thymidine incorporation into genomic DNA was calculated as the average of the mean (±SEM) of sextuplicate wells. […]

Row | SMILES | number of Treg cells ([1]; lymph node) | number of Treg cells ([1]; spleen) | viability of multiple myeloma cell lines [2] | ability of pre-treated human PBMC to prime allogeneic responses by T cells from an unrelated donor (human PBMC)
1 | OC(c1cc(-c2ccccc2)nc2c1ccc1ccccc12)C1CCCCN1 (stereo not shown) [NSC13480, (2-phenylbenzo[h]quinolin-4-yl)-piperidin-2-ylmethanol] | increased significantly | increased significantly |  | 
2 | CC(C)CCC[C@@H](C)[C@H]1CC[C@H]2[C@@H]3CC[C@H]4C[C@H](N)CC[C@]4(C)[C@H]3CC[C@]12C [NSC23922, (3R,5S,8R,9S,10S,13R,14S,17R)-10,13-dimethyl-17-[(2R)-6-methylheptan-2-yl]-2,3,4,5,6,7,8,9,11,12,14,15,16,17-tetradecahydro-1H-cyclopenta[a]phenanthren-3-amine] |  |  | decrease in viability | significantly reduces
